Laboratory results published in US20140206624A1, “TREATMENT OF LEUKEMIA” (THE BRIGHAM AND WOMEN'S HOSPITAL, INC., priority 2011, published 2014).

Tested on: L-GMP population
Experiment: L-GMP and mature myeloid cell proportion in leukemic BM
Assay type: in vivo, mouse
Settings: seven days following pI-pC, Mx1-Cre+
Description: (§1) Seven days following the administration of saline or pI-pC, secondary mice transplanted with MLL-AF9-positive FoxO1/3/4^floxed; Mx1-Cre+ leukmic BM cells were euthanized. Leukemic BM cells were then isolated from each treatment condition (Saline (Ctrl) versus pI-pC (pI-pC)) were analyzed for the proportion of L-GMPs (lineage^low, Sca-1^−, cKit^hi, CD34^+, FcgRII/III^+, p=0.039; n=3).
as §1, with “leukemic” for “leukmic”, “mature myeloid cells (lineage^hi, CD11b^+, p=0.0098; n=3)” for “L-GMPs (lineage^low, Sca-1^−, cKit^hi, CD34^+, FcgRII/III^+, p=0.039; n=3).”
L-GMP and GMP populations were analyzed and sorted with a BD FACSARIA™ instrument (BD™ Biosciences). To analyze and isolate L-GMPs and GMPs, total BM cells were recovered from flushing the tibias and femurs of leukemic and healthy mice respectively with PBS supplemented with 2% FBS and 1% Penicillin/Streptomycin (F-PBS). […] For Phosphoflow experiments, cells were stained with cKit-Ax750 and CD34-antibodies in combination with phospho-AKT^Ser473-PE, phospho-AKT^Thr308-APC or phospho-S6^Ser235/236-APC antibodies and analyzed on a FACSAria according to the following protocol: • 1. […]

How did the L-GMPs turn out when polyinosine-polycytidyline [pI-pC] was run?
Its L-GMPs is “immunophenotypic reduction”.

And the “lineage^hi, CD11b^hi(+) myeloid cells” value?
Its value is “concomitant increase”.
